Data published in patent US7919616B2, “Carbapenem compound” (priority 2005, dated 2011).

How the values were obtained:
[1] = Stability test of compound (Ia) in crystalline state (purity by HPLC on storage); format: physicochemical; settings: 20° C. and 40° C., after 6, 17, 21 and 31 days
Procedure: Stability Test of Compound (Ia) in Crystalline State
About 2 g of the compound (Ia) in a crystalline form which was obtained in the same way as Example 1 was placed in sample bottles, and the sample bottles were stored at room temperature (about 20° C.) and in a room maintained at a temperature of about 40° C. Taking the original purity as 100%, after every several number of days, the purity of the compound (Ia) was measured using high-performance liquid chromatography (HPLC). The HPLC measurement conditions are shown below.
Solvent delivery system: LC-10A (manufactured by Shimadzu Corporation)
UV, VIS detector: SPD-10A (manufactured by Shimadzu Corporation)
Detection wavelength: 215 nm
Column heater: Sugai U-620 (used at 40° C., Sugai Chemical Industry Co., Ltd.)
Column: Inertsil® ODS-2 (4.6 mm diameter×250 mm length, GL Sciences, Inc.)

[2] = disclosed in Patent Document 1; cited from earlier work

Row | SMILES | stability of the crystalline form [1] | stability in the crystalline form [2]
1 | C=CCOC(=O)C1=C(OP(=O)(OCC(Cl)(Cl)Cl)OCC(Cl)(Cl)Cl)[C@H](C)[C@@H]2[C@@H]([C@@H](C)O)C(=O)N12 [compound (Ia), allyl-(1R,5R,6S)-2-[bis(2,2,2-trichloroethyl)phosphoryloxy]-6-[(R)-1-hydroxyethyl]-1-methyl-carbapenem-3-carboxylate] | very stable without a decrease in purity | –
2 | C[C@@H](O)[C@H]1C(=O)N2C(C(=O)OCc3ccc([N+](=O)[O-])cc3)=C(OP(=O)(Oc3ccccc3)Oc3ccccc3)[C@H](C)[C@H]12 [compound (Ib)] | – | excellent stability in the crystalline form
